# Where a name gives a salt, the structure may show the parent alone.
# Test system: modified version of the GPR119 receptor (94% identity to human receptor)
# Test: cAMP production assay (LANCE cAMP kit, TR-FRET) in HEK-293 cells
# Type: cell-based
# Details: for cAMP production in HEK-293 cells: HEK-293 cells stably expressing modified GPR119, test compounds 0.2 nM to 10 μM, one-hour incubation; for Fold over baseline: increase in cAMP relative to basal levels, agonist activity if 1.5-fold or greater
# Experimental: The assay utilized HEK-293 cells that stably express a modified version of the GPR119 receptor (94% identity to human receptor), under the control of a CMV promoter containing a tet-on element for tetracycline-inducible expression. GPR119 agonist-induced cyclic AMP (cAMP) production was measured in this cell line using the LANCE cAMP kit (Perkin Elmer, Waltham, Mass.). To generate a working stock of cells for the assay, cells were treated overnight with 1 μg/mL doxycycline at 37° C. in the presence of 5% CO2 to induce receptor expression. Cells were then harvested by enzymatic dissociation with 0.05% trypsin, resuspended in freezing medium (DMEM growth medium with 10% each of fetal bovine serum and DMSO), aliquoted and frozen at −80° C. On the day of the assay, frozen cells were thawed, washed 1× in PBS and resuspended in Hank's buffered salt solution (HBSS) containing 5 mM HEPES, 0.1% BSA and Alexa Fluor 647-conjugated anti-cAMP antibody (diluted 1:100). The cell suspension was then transferred to a Proxiplate Plus white 384-well assay plate (Perkin-Elmer) at 2000 cells/well. Test compounds at final concentrations ranging from 0.2 nM to 10 μM were added to the assay plate, followed by a one-hour incubation at ambient temperature (volume=10 μL/well). DMSO concentration was held constant at 0.5%. After incubation with test compounds, 10 μL, of a detergent buffer containing a biotinylated cAMP/Europium-conjugated streptavidin complex (Europium-labeled cAMP tracer) were added to each well on the assay plate, followed by a 2-hour incubation at ambient temperature. During this incubation cAMP released from lysed cells competes with the Europium-labeled cAMP tracer for binding to the Alexa Fluor 647-conjugated antibody. […] Cellular cAMP levels were then determined by interpolation of raw signal data using a cAMP standard curve. Compounds were determined to have agonist activity if they stimulated a 1.5-fold or greater increase in cAMP relative to basal levels.
SMILES,cAMP production in HEK-293 cells,Fold over baseline
"CCS(=O)(=O)c1ccc(NC2CCN(C3CCN(c4nc(C(C)C)ns4)CC3)C2=O)cc1F (stereo not drawn) [Example 20, 3-(4-(ethylsulfonyl)-3-fluorophenylamino)-1-(1-(3-isopropyl-1,2,4-thiadiazol-5-yl)piperidin-4-yl)pyrrolidin-2-one]",22.6 nmol,3.5
"Cc1cc(S(C)(=O)=O)ccc1NC1CCN(C2CCN(c3nc(C(C)C)ns3)CC2)C1=O (stereo not drawn) [Example 21, 1-(1-(3-isopropyl-1,2,4-thiadiazol-5-yl)piperidin-4-yl)-3-(2-methyl-4-(methyl-sulfonyl)phenylamino) pyrrolidin-2-one]",13.0 nmol,3.3
"CC(C)Cc1nsc(N2CCC(N3CC[C@H](Nc4ccc(S(C)(=O)=O)cc4F)C3=O)CC2)n1 [Example 22, (S)-3-(2-fluoro-4-(methylsulfonyl)phenylamino)-1-(1-(3-isobutyl-1,2,4-thiadiazol-5-yl)piperidin-4-yl)pyrrolidin-2-one trifluoroacetate]",22.1 nmol,7.6
"CS(=O)(=O)c1ccc(N[C@H]2CCN(C3CCN(c4nc(C5CC5)ns4)CC3)C2=O)c(F)c1 [Example 23, (S)-1-(1-(3-cyclopropyl-1,2,4-thiadiazol-5-yl)piperidin-4-yl)-3-(2-fluoro-4-(methyl-sulfonyl)phenylamino) pyrrolidin-2-one]",11.9 nmol,2.9
"CS(=O)(=O)c1ccc(N[C@H]2CCN(C3CCN(c4nc(-c5ccccc5)ns4)CC3)C2=O)c(F)c1 [Example 24, (S)-3-(2-fluoro-4-(methylsulfonyl)phenylamino)-1-(1-(3-phenyl-1,2,4-thiadiazol-5-yl)piperidin-4-yl)pyrrolidin-2-one]",9.7 nmol,2.6
"CS(=O)(=O)c1ccc(N[C@H]2CCN(C3CCN(c4nc([C@H](O)CO)ns4)CC3)C2=O)c(F)c1 [Example 25, (S)-1-(1-(3-((S)-1,2-dihydroxyethyl)-1,2,4-thiadiazol-5-yl)piperidin-4-yl)-3-(2-fluoro-4-(methylsulfonyl)phenylamino)pyrrolidin-2-one]",8.3 nmol,2.1
"CC(C)c1nsc(N2CCC(N3CC[C@H](N(C)c4cc(F)c(S(C)(=O)=O)cc4F)C3=O)CC2)n1 [Example 26, (S)-3-((2,5-Difluoro-4-(methylsulfonyl)phenyl)(methyl)amino)-1-(1-(3-isopropyl-1,2,4-thiadiazol-5-yl)piperidin-4-yl)pyrrolidin-2-one]",17.2 nmol,3.9
"CC(C)c1nsc(N2CCC(N3CCC[C@H](Nc4ccc(S(C)(=O)=O)cc4F)C3=O)CC2)n1 [Example 27, (S)-3-(2-fluoro-4-(methylsulfonyl)phenylamino)-1′-(3-isopropyl-1,2,4-thiadiazol-5-yl)-[1,4′-bipiperidin]-2-one]",17.5 nmol,3.0
"CC(C)Cc1nsc(N2CCC(N3CCC[C@H](Nc4ccc(S(C)(=O)=O)cc4F)C3=O)CC2)n1 [Example 28, (S)-3-(2-fluoro-4-(methylsulfonyl)phenylamino)-1′-(3-isobutyl-1,2,4-thiadiazol-5-yl)-[1,4′-bipiperidin]-2-one]",11.6 nmol,2.3
"CS(=O)(=O)c1ccc(N[C@H]2CCCN(C3CCN(c4nc(-c5ccccc5)ns4)CC3)C2=O)c(F)c1 [Example 29, (S)-3-(2-fluoro-4-(methylsulfonyl)phenylamino)-1′-(3-phenyl-1,2,4-thiadiazol-5-yl)-[1,4′-bipiperidin]-2-one]",7.3 nmol,2.2
"CC(C)(C)c1nsc(N2CCC(N3CCC[C@H](Nc4ccc(S(C)(=O)=O)cc4F)C3=O)CC2)n1 [Example 30, (S)-1′-(3-tert-butyl-1,2,4-thiadiazol-5-yl)-3-(2-fluoro-4-(methylsulfonyl)phenylamino)-[1,4′-bipiperidin]-2-one]",13.9 nmol,2.8
CC(C)(C)c1nsc(N2CCC(N3CCC[C@H](Nc4c(F)cc(S(C)(=O)=O)cc4F)C3=O)CC2)n1 [Example 31],7.6 nmol,1.9
"CSc1ccc(OC2CCN(C3CCN(c4nc(C(C)C)ns4)CC3)C2=O)cc1 (stereo not drawn) [Example 32, 1-(1-(3-Isopropyl-1,2,4-thiadiazol-5-yl)piperidin-4-yl)-3-(4-(methylthio)phenoxy)pyrrolidin-2-one]",17.8 nmol,2.7
"CC(C)c1nsc(N2CCC(N3CCC(Oc4ccc(Br)cc4F)C3=O)CC2)n1 (stereo not drawn) [Example 33, 3-(4-bromo-2-fluorophenoxy)-1-(1-(3-isopropyl-1,2,4-thiadiazol-5-yl)piperidin-4-yl)pyrrolidin-2-one]",16.9 nmol,2.7
"CC(C)(C)c1nsc(N2CCC(N3CC[C@H](Oc4cc(F)c(S(C)(=O)=O)cc4F)C3=O)CC2)n1 [Example 34, (S)-1-(1-(3-tert-butyl-1,2,4-thiadiazol-5-yl)piperidin-4-yl)-3-(2,5-difluoro-4-(methylsulfonyl)phenoxy)pyrrolidin-2-one]",29.2 nmol,4.5
"CC(C)(C)c1nsc(N2CCC(N3CC[C@H](Oc4ccc(S(C)(=O)=O)cc4F)C3=O)CC2)n1 [Example 35, (S)-1-(1-(3-tert-butyl-1,2,4-thiadiazol-5-yl)piperidin-4-yl)-3-(2-fluoro-4-(methylsulfonyl)phenoxy)pyrrolidin-2-one]",26.1 nmol,3.7
"CC(C)(C)c1nsc(N2CCC(N3CC[C@H](Oc4c(F)cc(S(C)(=O)=O)cc4F)C3=O)CC2)n1 [Example 36, (S)-1-(1-(3-tert-butyl-1,2,4-thiadiazol-5-yl)piperidin-4-yl)-3-(2,6-difluoro-4-(methylsulfonyl)phenoxy) pyrrolidin-2-one]",23.2 nmol,4.1
"CC(C)(C)c1nsc(N2CCC(N3CC[C@H](Nc4ccc(S(C)(=O)=O)cc4F)C3=O)CC2)n1 [Example 37, (S)-1-(1-(3-tert-butyl-1,2,4-thiadiazol-5-yl)piperidin-4-yl)-3-(2-fluoro-4-(methylsulfonyl)phenyl-amino)pyrrolidin-2-one]",20.9 nmol,3.2
"COC(C)(C)c1nsc(N2CCC(N3CC[C@H](Oc4ccc(S(C)(=O)=O)cc4F)C3=O)CC2)n1 [Example 38, (S)-3-(2-fluoro-4-(methylsulfonyl)phenoxy)-1-(1-(3-(2-methoxypropan-2-yl)-1,2,4-thiadiazol-5-yl)piperidin-4-yl)pyrrolidin-2-one]",42.1 nmol,6.6
"COC(C)(C)c1nsc(N2CCC(N3CC[C@H](Oc4cc(F)c(S(C)(=O)=O)cc4F)C3=O)CC2)n1 [Example 39, (S)-3-(2,5-difluoro-4-(methylsulfonyl)phenoxy)-1-(1-(3-(2-methoxypropan-2-yl)-1,2,4-thiadiazol-5-yl)piperidin-4-yl)pyrrolidin-2-one]",22.4 nmol,3.7
"COC(C)(C)c1nsc(N2CCC(N3CC[C@H](Oc4c(F)cc(S(C)(=O)=O)cc4F)C3=O)CC2)n1 [Example 40, (S)-3-(2,6-difluoro-4-(methylsulfonyl)phenoxy)-1-(1-(3-(2-methoxypropan-2-yl)-1,2,4-thiadiazol-5-yl)piperidin-4-yl)pyrrolidin-2-one]",21.1 nmol,3.9
"COC(C)(C)c1nsc(N2CCC(N3CC[C@H](Nc4ccc(S(C)(=O)=O)cc4F)C3=O)CC2)n1 [Example 41, (S)-3-(2-fluoro-4-(methylsulfonyl)phenyl-amino)-1-(1-(3-(2-methoxypropan-2-yl)-1,2,4-thiadiazol-5-yl)piperidin-4-yl)pyrrolidin-2-one]",8.1 nmol,2.0
"CS(=O)(=O)c1ccc(O[C@H]2CCN(C3CCN(c4nc(-n5cccn5)ns4)CC3)C2=O)c(F)c1 [Example 42, (S)-1-(1-(3-(1H-pyrazol-1-yl)-1,2,4-thiadiazol-5-yl)piperidin-4-yl)-3-(2-fluoro-4-(methylsulfonyl)phenoxy)pyrrolidin-2-one]",12.0 nmol,2.5
"Cc1nnc(-c2ccc(O[C@H]3CCN(C4CCN(c5nc(C(C)C)ns5)CC4)C3=O)c(F)c2)o1 [Example 43, (S)-3-(2-fluoro-4-(5-methyl-1,3,4-oxadiazol-2-yl)phenoxy)-1-(1-(3-isopropyl-1,2,4-thiadiazol-5-yl)piperidin-4-yl)pyrrolidin-2-one]",29.4 nmol,7.4

# From patent US20140256756A1, “PIPERIDINYL-SUBSTITUTED LACTAMS AS GPR119 MODULATORS” (Array BioPharma Inc., priority 2011, published 2014)
